From PubChem BioAssay AID200 (DTP/NCI, 2004)
Where “and” joins values, the source holds several entries; their conditions need not be identical. Equal values may be shown once. Inconclusive results and toxic doses are left out.

Test system: B6C3F1 mice, B16 melanoma ip, median survival T/C
Test: NCI In Vivo Anticancer Drug Screen. Data for tumor model B16 Melanoma (intraperitoneal) in B6C3F1 mice
Settings: endpoint: median survival time, higher = longer survival
How it was run: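 Readout: survival or tumor size in treated mice relative to vehicle controls (T/C). Model uses transplantable tumors grown in mice.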

[1] = dose: 5.0 mg/kg/injection, schedule: Q01DX009 (ip), vehicle: Klucel (hydroxypropylcellulose) (HPC)
[2] = dose: 10.0 mg/kg/injection, schedule: Q01DX009 (ip), vehicle: Klucel (hydroxypropylcellulose) (HPC)
[3] = dose: 20.0 mg/kg/injection, schedule: Q01DX009 (ip), vehicle: Klucel (hydroxypropylcellulose) (HPC)
[4] = dose: 25.0 mg/kg/injection, schedule: Q01DX009 (ip), vehicle: Klucel (hydroxypropylcellulose) (HPC)
[5] = dose: 50.0 mg/kg/injection, schedule: Q01DX009 (ip), vehicle: Klucel (hydroxypropylcellulose) (HPC)
[6] = dose: 100.0 mg/kg/injection, schedule: Q01DX009 (ip), vehicle: Klucel (hydroxypropylcellulose) (HPC)
[7] = dose: 200.0 mg/kg/injection, schedule: Q01DX009 (ip), vehicle: Klucel (hydroxypropylcellulose) (HPC)
[8] = dose: 1.56 mg/kg/injection, schedule: Q01DX009 (ip), vehicle: saline with Tween-80
[9] = dose: 6.25 mg/kg/injection, schedule: Q01DX009 (ip), vehicle: saline with Tween-80
[10] = dose: 3.12 mg/kg/injection, schedule: Q01DX009 (ip), vehicle: saline with Tween-80
[11] = dose: 10.0 mg/kg/injection, schedule: Q01DX009 (ip), vehicle: saline with Tween-80
[12] = dose: 50.0 mg/kg/injection, schedule: Q01DX009 (ip), vehicle: saline with Tween-80
[13] = dose: 100.0 mg/kg/injection, schedule: Q01DX009 (ip), vehicle: saline with Tween-80
[14] = dose: 200.0 mg/kg/injection, schedule: Q01DX009 (ip), vehicle: saline with Tween-80
[15] = dose: 12.5 mg/kg/injection, schedule: Q01DX009 (ip), vehicle: Klucel (hydroxypropylcellulose) (HPC)
[16] = dose: 6.25 mg/kg/injection, schedule: Q01DX009 (ip), vehicle: Klucel (hydroxypropylcellulose) (HPC)

CCCCCCCCCCNCCS
T/C [1]: 88 % of control
T/C [2]: 99 % of control
T/C [3]: 104 % of control

COc1ccc(N=C(C)C2C(=O)c3ccccc3C2=O)cc1
T/C (dose: 50.0 mg/kg/injection, schedule: Q01DX009 (ip), vehicle: DMSO): 103 % of control
T/C (dose: 100.0 mg/kg/injection, schedule: Q01DX009 (ip), vehicle: DMSO): 103 % of control
T/C (dose: 200.0 mg/kg/injection, schedule: Q01DX009 (ip), vehicle: DMSO): 105 % of control
T/C (dose: 400.0 mg/kg/injection, schedule: Q01DX009 (ip), vehicle: DMSO): 116 % of control
T/C (dose: 800.0 mg/kg/injection, schedule: Q01DX009 (ip), vehicle: DMSO): 97 % of control

O=c1[nH]cnc2c1cnn2CN1CCOCC1
T/C [4]: 98 % of control and 99 % of control
T/C [5]: 100 % of control and 102 % of control
T/C [6]: 123 % of control and 100 % of control
T/C [7]: 99 % of control

NC(N)=NC(N)=Nc1ccc(-c2ccc(N=C(N)N=C(N)N)cc2)cc1
T/C (dose: 0.78 mg/kg/injection, schedule: Q01DX009 (ip), vehicle: saline with Tween-80): 98 % of control
T/C [8]: 107 % of control
T/C (dose: 3.13 mg/kg/injection, schedule: Q01DX009 (ip), vehicle: saline with Tween-80): 90 % of control
T/C [9]: 106 % of control
T/C (dose: 12.5 mg/kg/injection, schedule: Q01DX009 (ip), vehicle: saline with Tween-80): 93 % of control

[Cl][Hg][CH]1CCC2OC1CC[CH]2[Hg][Cl] (stereo not given)
T/C [8]: 97 % of control
T/C [10]: 97 % of control
T/C [9]: 101 % of control

[CH3][Sn]([CH3])([Cl])[S]CCN
T/C (dose: 3.12 mg/kg/injection, schedule: Q01DX009 (ip), vehicle: saline): 109 % of control and 102 % of control
T/C (dose: 6.25 mg/kg/injection, schedule: Q01DX009 (ip), vehicle: saline): 95 % of control and 96 % of control
T/C (dose: 12.5 mg/kg/injection, schedule: Q01DX009 (ip), vehicle: saline): 96 % of control and 102 % of control
T/C (dose: 25.0 mg/kg/injection, schedule: Q01DX009 (ip), vehicle: saline): 100 % of control
T/C (dose: 50.0 mg/kg/injection, schedule: Q01DX009 (ip), vehicle: saline): 97 % of control

Nc1nc(-c2ccc(S(=O)(=O)O)cc2)cc(=O)[nH]1
T/C (dose: 3.31 mg/kg/injection, schedule: Q01DX009 (ip), vehicle: saline): 100 % of control
T/C (dose: 6.62 mg/kg/injection, schedule: Q01DX009 (ip), vehicle: saline): 105 % of control
T/C (dose: 13.25 mg/kg/injection, schedule: Q01DX009 (ip), vehicle: saline): 105 % of control
T/C (dose: 26.5 mg/kg/injection, schedule: Q01DX009 (ip), vehicle: saline): 96 % of control and 104 % of control
T/C (dose: 53.0 mg/kg/injection, schedule: Q01DX009 (ip), vehicle: saline): 104 % of control
T/C (dose: 106.0 mg/kg/injection, schedule: Q01DX009 (ip), vehicle: saline): 110 % of control

CCCCCCCCSC1=C(Cl)C(=O)C(OC)=C(OC)C1=O
T/C [8]: 100 % of control
T/C [10]: 93 % of control
T/C [9]: 89 % of control

CC(C)NC(=O)OCc1c(COC(=O)NC(C)C)c(-c2ccc(Cl)c(Cl)c2)n2c1CCC2
T/C (dose: 2.5 mg/kg/injection, schedule: Q01DX009 (ip), vehicle: Klucel (hydroxypropylcellulose) (HPC)): 115 % of control
T/C [1]: 158 % of control
T/C (dose: 5.0 mg/kg/injection, schedule: Q01DX009 (ip), vehicle: saline with Tween-80): 159 % of control
T/C (dose: 6.25 mg/kg/injection, schedule: Q01DX009 (ip), vehicle: distilled water + Tween-80): 166 % of control and 169 % of control and 176 % of control
T/C [2]: 153 % of control and 175 % of control
T/C [11]: 196 % of control
T/C [3]: 209 % of control
T/C (dose: 20.0 mg/kg/injection, schedule: Q01DX009 (ip), vehicle: saline with Tween-80): 191 % of control
T/C (dose: 40.0 mg/kg/injection, schedule: Q01DX009 (ip), vehicle: Klucel (hydroxypropylcellulose) (HPC)): 235 % of control and 256 % of control
T/C (dose: 40.0 mg/kg/injection, schedule: Q01DX009 (ip), vehicle: saline with Tween-80): 251 % of control
T/C (dose: 80.0 mg/kg/injection, schedule: Q01DX009 (ip), vehicle: saline with Tween-80): 89 % of control

COC(=O)C(CSCc1ccccc1)NC(=O)C(C)NC(=O)OCc1ccccc1 (stereo not given)
T/C [5]: 97 % of control
T/C [6]: 90 % of control
T/C [7]: 90 % of control

CCOc1ncc([N+](=O)[O-])c(OCC)n1
T/C [12]: 89 % of control and 106 % of control
T/C [13]: 103 % of control
T/C [14]: 91 % of control and 96 % of control

COc1ccc2ccccc2c1C1NC(=O)c2ccccc2N1 (stereo not given)
T/C [15]: 96 % of control
T/C [4]: 100 % of control
T/C [5]: 96 % of control
T/C [6]: 100 % of control
T/C [7]: 104 % of control
T/C (dose: 400.0 mg/kg/injection, schedule: Q01DX009 (ip), vehicle: Klucel (hydroxypropylcellulose) (HPC)): 102 % of control

O=C(CNC(=O)OCc1ccccc1)NCC(=O)NC(Cc1c[nH]c2ccccc12)C(=O)O (stereo not given)
T/C (dose: 50.0 mg/kg/injection, schedule: Q01DX009 (ip), vehicle: suspension in saline): 97 % of control
T/C (dose: 100.0 mg/kg/injection, schedule: Q01DX009 (ip), vehicle: suspension in saline): 109 % of control and 117 % of control and 88 % of control
T/C (dose: 200.0 mg/kg/injection, schedule: Q01DX009 (ip), vehicle: suspension in saline): 91 % of control and 99 % of control
T/C (dose: 400.0 mg/kg/injection, schedule: Q01DX009 (ip), vehicle: suspension in saline): 88 % of control and 92 % of control and 107 % of control

Nc1ccc2ccc(NS(=O)(=O)N3CCCCC3)cc2c1
T/C (dose: 25.0 mg/kg/injection, schedule: Q01DX009 (ip), vehicle: saline with Tween-80): 110 % of control
T/C [12]: 98 % of control
T/C [13]: 111 % of control
T/C [14]: 107 % of control

CCN(C)N=Nc1ccc(C(N)=O)cc1
T/C [16]: 117 % of control and 95 % of control
T/C [15]: 104 % of control and 106 % of control
T/C [4]: 95 % of control and 101 % of control
T/C [5]: 110 % of control and 102 % of control

Cc1cc2nc3[nH]c4ccccc4c3nc2cc1C
T/C (dose: 12.5 mg/kg/injection, schedule: Q01DX008 (ip), vehicle: saline): 91 % of control
T/C (dose: 25.0 mg/kg/injection, schedule: Q01DX008 (ip), vehicle: saline): 90 % of control
T/C (dose: 50.0 mg/kg/injection, schedule: Q01DX008 (ip), vehicle: saline): 101 % of control
T/C (dose: 100.0 mg/kg/injection, schedule: Q01DX008 (ip), vehicle: saline): 91 % of control
T/C (dose: 200.0 mg/kg/injection, schedule: Q01DX008 (ip), vehicle: saline): 86 % of control
T/C (dose: 400.0 mg/kg/injection, schedule: Q01DX008 (ip), vehicle: saline): 88 % of control

O=C(Cl)c1ccccc1S(=O)(=O)N(CCOc1ccccc1)c1ccccc1
T/C [5]: 90 % of control
T/C [6]: 94 % of control
T/C [7]: 90 % of control

C=C(C)/C([O-])=N/[N+](C)(C)CC(O)CCCCCCCCCCCC (stereo not given)
T/C (dose: 25.0 mg/kg/injection, schedule: Q01DX001 (ip), vehicle: saline): 109 % of control
T/C (dose: 50.0 mg/kg/injection, schedule: Q01DX001 (ip), vehicle: saline): 114 % of control and 116 % of control
T/C (dose: 100.0 mg/kg/injection, schedule: Q01DX001 (ip), vehicle: saline): 114 % of control and 90 % of control
T/C (dose: 200.0 mg/kg/injection, schedule: Q01DX001 (ip), vehicle: saline): 86 % of control

CCc1ccc(C2=C(O)C(=O)C(c3ccccc3)=C(O)C2=O)cc1
T/C (dose: 3.12 mg/kg/injection, schedule: Q01DX009 (ip), vehicle: Klucel (hydroxypropylcellulose) (HPC)): 112 % of control
T/C [16]: 106 % of control
T/C [15]: 108 % of control
T/C [4]: 114 % of control
T/C [5]: 114 % of control
T/C [6]: 108 % of control

O=C1C=C(N2CC2)C(=O)C(N2CC2)=C1N1CC1
T/C (dose: 6.25 micrograms/kg/injection, schedule: Q01DX009 (ip), vehicle: saline): 111 % of control
T/C (dose: 12.5 micrograms/kg/injection, schedule: Q01DX009 (ip), vehicle: saline): 95 % of control
T/C (dose: 25.0 micrograms/kg/injection, schedule: Q01DX009 (ip), vehicle: saline): 113 % of control
T/C (dose: 50.0 micrograms/kg/injection, schedule: Q01DX009 (ip), vehicle: saline): 165 % of control
T/C (dose: 100.0 micrograms/kg/injection, schedule: Q01DX009 (ip), vehicle: saline): 157 % of control

Cc1cc([NH-])c([NH-])cc1C.[Cl][Pt+2][Cl]
T/C (dose: 1.25 mg/kg/injection, schedule: Q01DX009 (ip), vehicle: saline with Tween-80): 112 % of control
T/C [11]: 161 % of control
